Laboratory results taken from paper PMC11432087, “Hydrogen Sulfide-Releasing Carbonic Anhydrase Inhibitors Effectively Suppress Cancer Cell Growth” (International Journal of Molecular Sciences, 2024).
Where two headings read alike, the source gives them in different places. One block for each compound: values may come before it.

Experiments:
A549 [1] = test: MTT antiproliferative assay, A549; type: cell-based; details: Homo sapiens, normoxic conditions, 72 h
Method: The human triple-negative breast cancer cell line (MDA-MB-231), colon cancer cell line (HCT-116), and lung cancer cell line (A549) used in this study were obtained from the American Type Culture Collection (ATCC). These cell lines were cultured as monolayers in Dulbecco’s Modified Eagle’s Medium (DMEM) supplemented with 10% FBS, 2 mM l-glutamine, 100 U/mL penicillin, and 100 µg/mL streptomycin sulfate. […] The cells were sub-cultured using trypsin/EDTA solution, counted with a hemocytometer, and plated on 96-well plates (5000 cells/well), allowing them to form a semi-confluent monolayer overnight. […]. DMSO (100 µL/well) was then added to dissolve the formazan crystals with shaking for 10 min, after which the absorb absorbance was read at 590 nm against no-cell blanks using a FLuo Star Optima microplate reader (BMG technologies, Ortenberg, Germany). Cell proliferation was calculated by comparing the OD values of the DMSO control wells with those of the samples, represented as % proliferation relative to the control.

hCA XII [2] = details: stopped-flow CO2 hydrase assay, mean of three assays; cited from earlier work
hCA XII [3] = test: Stopped-flow CO2 hydrase inhibition assay, hCA XII; type: biochemical, human; details: ratio of KIs
Method: (§1) An Applied Photophysics stopped-flow instrument (Applied Photophysics Ltd, Leatherhead, UK) was used for assaying the CA-catalyzed CO2 hydration activity. Phenol red (at a concentration of 0.2 mM) was used as an indicator, working at the absorbance maximum of 557 nm, with 20 mM Hepes (pH 7.5) as a buffer and 20 mM Na2SO4 for maintaining constant the ionic strength, following the initial rates of the CA-catalyzed CO2 hydration reaction for a period of 10−100 s. The CO2 concentrations ranged from 1.7 to 17 mM for the determination of the kinetic parameters and inhibition constants. For each inhibitor, at least six traces of the initial 5−10% of the reaction were used for determining the initial velocity. The uncatalyzed rates were determined in the same manner and subtracted from the total observed rates. Stock solutions of inhibitor (0.1 mM) were prepared in distilled−deionized water and dilutions up to 0.01 nM were made thereafter with the assay buffer. Inhibitor and enzyme solutions were preincubated together for 15 min at room temperature before the assay to allow for the formation of the E−I complex. The inhibition constants were obtained by nonlinear least-squares methods using Prism 7 (GraphPad Software, La Jolla, CA, USA) and the Cheng−Prusoff equation and represent the mean of at least three different determinations. The enzyme concentrations were in the range of 3–11 nM. All hCA isoforms were recombinant ones obtained in-house.

HCT-116 [4] = test: Cell cycle analysis by DNA flow cytometry, HCT-116; type: cell-based, human; details: HCT-116, 24 h at IC50 concentration
Method: (§2) Following treatment, cells were washed twice with ice-cold phosphate-buffered saline (PBS). Subsequently, the treated cells were harvested through centrifugation, fixed in ice-cold 70% (v/v) ethanol, washed with PBS, re-suspended in 100 μg/mL RNase, stained with 40 μg/mL propidium iodide (PI), and subjected to flow cytometry analysis using FACS Calibur (Becton Dickinson, Franklin Lakes, NJ, USA). The cell cycle distributions were calculated using CellQuest software 5.1 (Becton Dickinson).

hCA IX [5] = details: stopped-flow CO2 hydrase assay, mean of three assays; cited from earlier work
hCA II = details: stopped-flow CO2 hydrase assay, mean of three assays; cited from earlier work
MDA-MB-231 = test: MTT antiproliferative assay, MDA-MB-231; type: cell-based; details: Homo sapiens, normoxic conditions, 72 h
Method: (§3) These cell lines were cultured as monolayers in Dulbecco’s Modified Eagle’s Medium (DMEM) supplemented with 10% FBS, 2 mM l-glutamine, 100 U/mL penicillin, and 100 µg/mL streptomycin sulfate. […] The cells were sub-cultured using trypsin/EDTA solution, counted with a hemocytometer, and plated on 96-well plates (5000 cells/well), allowing them to form a semi-confluent monolayer overnight. […] DMSO (100 µL/well) was then added to dissolve the formazan crystals with shaking for 10 min, after which the absorb absorbance was read at 590 nm against no-cell blanks using a FLuo Star Optima microplate reader (BMG technologies, Ortenberg, Germany). Cell proliferation was calculated by comparing the OD values of the DMSO control wells with those of the samples, represented as % proliferation relative to the control.

A549 [6] = test: Annexin V-FITC/PI dual staining apoptosis assay, A549; type: cell-based, human
Method: (§4) Phosphatidylserine externalization was evaluated using the Annexin V-FITC/PI apoptosis detection kit (BD Biosciences, USA), following the manufacturer’s guidelines. […] Subsequently, the cells were re-suspended in 100 μL of binding buffer with the addition of 1 μL of FITC-Annexin V, followed by a 30-min incubation at 4 °C. After rinsing in binding buffer, the cells were resuspended in 150 μL of binding buffer with the addition of 1 μL of DAPI (1 μg/μL in PBS). Flow cytometry analysis was performed using the BD FACS Canto II flow cytometer and the results were interpreted with FlowJo7.6.4 software (Tree Star, Ashland, USA).

hCA I = details: stopped-flow CO2 hydrase assay, mean of three assays; cited from earlier work
HCT-116 [7] = test: MTT antiproliferative assay, HCT-116 (normoxia and CoCl2-induced hypoxia); type: cell-based, human; details: HCT-116; for IC50: Homo sapiens, MTT, 72 h
Method: as §3

hCA IX [8] = test: Stopped-flow CO2 hydrase inhibition assay, hCA IX; type: biochemical, human; details: ratio of KIs
Method: as §1

A549 [9] = test: Cell cycle analysis by DNA flow cytometry, A549; type: cell-based, human; details: A549, 24 h at IC50 concentration
Method: as §2

HCT-116 [10] = test: Annexin V-FITC/PI dual staining apoptosis assay, HCT-116; type: cell-based, human
Method: as §4

hCA IV = details: stopped-flow CO2 hydrase assay, mean of three assays; cited from earlier work
[11] = A549, treated at IC50 concentration
[12] = HCT-116, treated at IC50 concentration

Structure (SMILES): CN[C@@H]1C[C@H]2O[C@@](C)([C@@H]1OC)n1c3ccccc3c3c4c(c5c6ccccc6n2c5c31)C(=O)NC4 [Staurosporine, reference compound]
IC50 (A549 [1]): 5110 ± 190 nM

hCA II/hCA XII selectivity ratio (hCA XII [3]): 548 | IC50 (MDA-MB-231): 1530 ± 40 nM | IC50 (A549 [1]): 4530 ± 120 nM | IC50 Normoxia / IC50 Hypoxia (HCT-116 [7]): 0.3 | IC50 (HCT-116 [7]; chemically induced hypoxia with CoCl2·6H2O, read-out: IC50 HCT-116 (Hypoxia)): 4270 ± 80 nM | IC50 (HCT-116 [7]; normoxic conditions, read-out: IC50 HCT-116 (Normoxia)): 1240 ± 40 nM | hCA II/hCA IX selectivity ratio (hCA IX [8]): 120
Structure (SMILES): N#Cc1ccc(CN(CCc2ccc(S(N)(=O)=O)cc2)C(=O)c2ccc(-c3cssc3=S)cc2)cc1 [Compound 23]
Ki (hCA XII [2]): 8.8 nM | %G0-G1 (HCT-116 [4]): 20.35% | %G2/M (HCT-116 [4]): 32.2% | %S (HCT-116 [4]): 23.29% | %Sub-G1 (HCT-116 [4]): 24.16% | Ki (hCA IX [5]): 40.3 nM | Ki (hCA II): 4830 nM | Fold increase in overall apoptosis compared to untreated control (A549 [6]; A549): 14.2 fold | Early Apoptosis (Lower Right %) (A549 [6]; [11]): 6.91% | Late Apoptosis (Upper Right %) (A549 [6]; [11]): 10.13% | Total apoptosis (A549 [6]; [11]): 17.04% | Ki (hCA I): > 10000 nM | %G0-G1 (A549 [9]): 29.65% | %G2/M (A549 [9]): 28.09% | %S (A549 [9]): 26.28% | %Sub-G1 (A549 [9]): 15.98% | Fold increase in overall apoptosis compared to untreated control (HCT-116 [10]; HCT-116): 37.2 fold | Early Apoptosis (Lower Right %) (HCT-116 [10]; [12]): 7.69% | Late Apoptosis (Upper Right %) (HCT-116 [10]; [12]): 21.33% | Total apoptosis (HCT-116 [10]; [12]): 29.02%

Structure (SMILES): NS(=O)(=O)c1ccc(CCN(Cc2ccc(Cl)cc2)C(=O)c2ccc(-c3cssc3=S)cc2)cc1 [Compound 21]
Ki (hCA XII [2]): 9.8 nM | Ki (hCA IX [5]): 24 nM | Ki (hCA II): 2970 nM | Ki (hCA I): 5500 nM | Ki (hCA IV): 430 nM

Structure (SMILES): N#CCCN(CCc1ccc(S(N)(=O)=O)cc1)C(=O)c1ccc(-c2cssc2=S)cc1 [Compound 33]
Ki (hCA XII [2]): 9.1 nM | Ki (hCA IX [5]): 28.7 nM | Ki (hCA II): 60.4 nM | Ki (hCA I): 429 nM | Ki (hCA IV): 523 nM

Structure (SMILES): COc1ccc(CN(CCc2ccc(S(N)(=O)=O)cc2)C(=O)c2ccc(-c3cssc3=S)cc2)cc1 [Compound 27]
Ki (hCA XII [2]): 76.4 nM | Ki (hCA IX [5]): 50.3 nM | Ki (hCA II): 589 nM | Ki (hCA I): 2220 nM | Ki (hCA IV): 1590 nM

Structure (SMILES): NS(=O)(=O)c1ccc(CCN(Cc2ccc(F)cc2)C(=O)c2ccc(-c3cssc3=S)cc2)cc1 [Compound 20]
Ki (hCA XII [2]): 65.3 nM | Ki (hCA IX [5]): 46.3 nM | Ki (hCA II): 600 nM | Ki (hCA I): 5320 nM | Ki (hCA IV): > 10000 nM

Structure (SMILES): NS(=O)(=O)c1ccc(CCN(CCc2ccccc2)C(=O)c2ccc(-c3cssc3=S)cc2)cc1 [Compound 32]
Ki (hCA XII [2]): 9.6 nM | Ki (hCA IX [5]): 126 nM | Ki (hCA II): 661 nM | Ki (hCA I): 4390 nM | Ki (hCA IV): 243 nM
